For series [1], the system named is people addicted to nicotine. To be noted: cited from earlier work.
Series [2] deals with clinical subjects. As to the kind of experiment: clinical observation of pupil response. The class given is in vivo, human. To be noted: rather than the expected pupilary dilation.
Series [3] has as its system muscarinic cholinergic receptor. As to the kind of experiment: pharmacological studies, muscarinic cholinergic receptor activity.
For series [4] the following is noted: known; cited from earlier work.
Series [5] in a line: detection of radiolabelled compound in saliva. The class given is in vivo.
Series [6] concerns rats. The series can be described thus: in vivo observation, overdose in rats. To be noted: rats exposed to an overdose.

For the molecule `Clc1cccc(Cl)c1N=C1NCCN1` [clonidine], the effectiveness versus placebo entry in series [1] (clonidine treatment for six weeks) was “more effective than placebo, but only for women”.

Regarding `Cc1cc2c(s1)Nc1ccccc1N=C2N1CCN(C)CC1` [2-methyl-4-(4-methyl-1-piperazinyl)-10H-thieno[2,3-b][1,5]benzodiazepine], the pupilary response entry in series [2] was “pupilary constriction”. In addition, in series [3] (in vivo animal and clinical observations), the “muscarinic receptor subtype profile” value is “complex muscarinic receptor subtype profile”. In addition, in series [3] (pharmacological studies), the “muscarinic cholinergic receptor activity” value is “has muscarinic cholinergic receptor activity”. Further, in series [4], the antipsychotic activity result was “can provide antipsychotic activity” and the extrapyramidal symptoms entry is reported as “less likely to induce extrapyramidal symptoms”. Besides, in series [5], the detection in saliva entry is listed as “can be detected in the saliva”. Moreover, the salivation entry in series [6] is recorded as “significant salivation”.

As to `CNC1(C)C2CCC(C2)C1(C)C` (stereo not shown) [mecamylamine], the undesirable side effects result in series [1] (receptor antagonist therapy) is listed as “other undesirable side effects”. In addition, the “effect on tobacco consumption” value in series [1] (receptor antagonist therapy, short term effect) is recorded as “increasing tobacco consumption”.

(Values after patent US5696115A, “Method for treating nicotine withdrawal” (Eli Lilly and Company, priority 1995, dated 1997).)
